Entries after “also recorded” stand apart in the source; their conditions may differ. Like-named read-outs stand apart in the source and are kept apart here.
Legend:
[1] = dog, in vivo, 90 mg/kg
serum PSA = details: mCRPC patients
Procedure: There were two (2) stages or arms to the study, Stage A and Stage B.
During Stage A, the dose escalation tolerance (or tolerability) study was conducted using the traditional rule-based 3+3 design. All subjects in Stage A were involved in pharmacokinetic studies. […]
Stage A: PSA was dynamically observed to assess the initial dose-effectiveness based on data from subjects in each dose group until the end of the 12-week trial period. Serum PSA test, safety evaluation (including blood, liver and kidney function, electrocardiogram, etc.) were performed at the 6th, 8th, 10th and 12th weeks of visit, and the trial ended at the 12th week of visit.
They show the percentage change in PSA levels for subjects in the study. In both figures, the vertical axis represents the percent change in PSA levels from the baseline and the horizontal axis (numbers that are in line with the “0%”) identifies individual patient or subject numbers.

[2] = Clinical pharmacokinetic study of HC-1119 (Stage A, plasma M0, M1, M2); details: steady state, 80 mg HC-1119
Procedure: Single dose biological sample collection: Subjects were given a single fasting dose on the first day of the study. Blood samples were collected before (−0.5˜0 h) and after administration 0.5, 0.75, 1, 2 h (±5 min), 4, 8, 12 h (±15 min), 24 h (±30 min, Day 2 before administration). Venous blood (3 mL) was collected, set in an anticoagulant tube (type of anticoagulant was based on established analytical test methods).
Continuous administration of biological samples collected: Blood sample collected on continuous administration Day 7, 21, 35, 42, 56, 70, 84 before administration, on Day 84 after administration 0.5, 0.75, 1, 2 h (±5 min), 4, 8, 12 h (±15 min), 24 h (±30 min, Day 85 before administration). Venous blood (3 mL) was collected, set in an anticoagulant tube (type of anticoagulant was based on established analytical test methods).
Sample Handling: Samples were centrifuged (about 3000 rpm for 10 minutes) to separate the plasma as soon as possible. Isolated plasma samples were stored in duplicate in plasma cryostat, with the tagged population's enrollment number, subject's initials, date and time of collection. Plasma samples were stored in −60° C.˜−80° C. freezer as soon as possible. One blood sample was retained at the research center and one blood sample was shipped to a specialist testing company for plasma drug concentration determination.

[3] = mouse, in vivo
AR = target: T1, AR (Homo sapiens, UniProt P10275); details: read-out: Ki for AR binding
T1 sequence (P10275 1-920): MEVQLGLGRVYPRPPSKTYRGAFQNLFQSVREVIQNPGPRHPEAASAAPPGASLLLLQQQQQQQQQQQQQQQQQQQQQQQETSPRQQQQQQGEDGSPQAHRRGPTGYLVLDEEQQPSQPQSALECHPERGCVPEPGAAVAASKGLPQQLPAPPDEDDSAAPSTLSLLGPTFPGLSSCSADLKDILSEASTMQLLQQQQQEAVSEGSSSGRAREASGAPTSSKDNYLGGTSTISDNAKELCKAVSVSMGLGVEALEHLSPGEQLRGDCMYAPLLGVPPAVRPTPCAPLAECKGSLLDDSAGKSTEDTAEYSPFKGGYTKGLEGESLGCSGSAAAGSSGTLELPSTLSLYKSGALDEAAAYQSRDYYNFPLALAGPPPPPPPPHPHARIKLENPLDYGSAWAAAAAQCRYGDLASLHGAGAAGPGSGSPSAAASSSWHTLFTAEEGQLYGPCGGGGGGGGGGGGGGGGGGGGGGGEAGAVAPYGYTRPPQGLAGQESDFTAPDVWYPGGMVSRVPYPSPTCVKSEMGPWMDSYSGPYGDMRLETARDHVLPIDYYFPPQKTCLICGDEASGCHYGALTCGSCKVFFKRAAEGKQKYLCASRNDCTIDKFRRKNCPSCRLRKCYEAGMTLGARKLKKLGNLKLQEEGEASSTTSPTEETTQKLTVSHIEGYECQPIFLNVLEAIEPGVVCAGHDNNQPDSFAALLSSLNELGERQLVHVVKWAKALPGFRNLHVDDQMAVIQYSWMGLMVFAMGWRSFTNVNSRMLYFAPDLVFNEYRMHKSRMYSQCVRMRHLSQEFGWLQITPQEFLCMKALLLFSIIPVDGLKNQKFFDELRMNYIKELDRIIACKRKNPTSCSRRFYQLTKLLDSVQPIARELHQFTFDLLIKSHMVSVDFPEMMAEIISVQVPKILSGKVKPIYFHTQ

LNCaP = LNCaP growth inhibition; assay type: cell-based
[4] = Brain penetration of parental drug and metabolites in mice (PD study); details: mouse, po, 10 mg/kg
[5] = Phase I dose escalation study, human; cited from earlier work
[6] = In vitro activity of metabolites M1 and M2; details: in vitro experiments

[2H]C([2H])([2H])NC(=O)c1ccc(N2C(=S)N(c3ccc(C#N)c(C(F)(F)F)c3)C(=O)C2(C)C)cc1F [HC-1119, 4-{3-[4-cyano-3-(trifluoromethyl)phenyl]-5,5-dimethyl-4-oxo-2-thio-1-imidazolidinyl}-2-fluoro-N-trideuteromethylbenzamide]
adult equivalent dose (HED) calculated from HNSTD [1]: 2916 mg/day | maximum decrease in PSA levels by more than 50% from the baseline (maximum response rate) (serum PSA; 40 mg dose group): 66.7% | rate of decrease in PSA levels by more than 50% from the baseline (response rate at week 12) (serum PSA; 40 mg dose group): 66.7% | maximum decrease in PSA levels by more than 50% from the baseline (maximum response rate) (serum PSA; 80 mg dose group): 88.8% | rate of decrease in PSA levels by more than 50% from the baseline (response rate at week 12) (serum PSA; 80 mg dose group): 75% | maximum decrease in PSA levels by more than 50% from the baseline (maximum response rate) (serum PSA; 160 mg dose group): 50% | rate of decrease in PSA levels by more than 50% from the baseline (response rate at week 12) (serum PSA; 160 mg dose group): 57.1% | maximum decrease in PSA levels by more than 50% from the baseline (maximum response rate) (serum PSA; 200 mg dose group): 100% | rate of decrease in PSA levels by more than 50% from the baseline (response rate at week 12) (serum PSA; 200 mg dose group): 33.3% | C24 h for the combination of the active drugs (M0+M2) [2]: close to that of 160 mg enzalutamide | Brain ([3]; po, 10 mg/kg): 1393 ng/g | Plasma ([3]; po, 10 mg/kg): 4686 ng/mL

CC1(C)C(=O)N(c2ccc(C#N)c(C(F)(F)F)c2)C(=S)N1c1ccc(C(N)=O)c(F)c1 [M2]
Ki (AR): 57 nM | IC50 (LNCaP): 0.13 nM | crossing of the blood-brain barrier (BBB) [3]: more readily cross the blood-brain barrier

CNC(=O)c1ccc(N2C(=S)N(c3ccc(C#N)c(C(F)(F)F)c3)C(=O)C2(C)C)cc1F [enzalutamide]
concentration at 24 h ([4]; brain): 647 ng/g | Kp at 24 h ([4]; brain/plasma): 0.31 | concentration at 24 h ([4]; plasma): 2100 ng/mL | maximum tolerable dosage (MTD) [5]: 240 mg/day

CC1(C)C(=O)N(c2ccc(C#N)c(C(F)(F)F)c2)C(=S)N1c1ccc(C(=O)O)c(F)c1 [M1]
in vitro activity [6]: inactive; also recorded: not active

Source: US20210137890A1, “DEUTERATED IMIDAZOLIDINEDIONE COMPOUNDS AND THEIR USES” (priority 2018, published 2021)
